{"source": "ChEMBL document CHEMBL1158328", "about": "“Three new pseudodistomins, piperidine alkaloids from the ascidian Pseudodistoma megalarva” (1997)", "assay_type_in_all_cases": "functional", "key": {"Saccharomyces cerevisiae [1]": {"test_system": "Saccharomyces cerevisiae", "assay": "DNA damaging activity against wild-type Saccharomyces cerevisiae assessed as drug level required to produce 12 mm zone of inhibition assessed per 100 uL after 48 hrs"}, "Saccharomyces cerevisiae [2]": {"test_system": "Saccharomyces cerevisiae", "assay": "DNA damaging activity against RAD52 DNA repair gene deficient Saccharomyces cerevisiae mutant assessed as drug level required to produce 12 mm zone of inhibition assessed per 100 uL after 48 hrs"}, "Saccharomyces cerevisiae [3]": {"test_system": "Saccharomyces cerevisiae", "assay": "DNA damaging activity against RAD52 DNA repair gene/topoisomerase 1 deficient Saccharomyces cerevisiae GAL4:RAD52 mutant assessed as drug level required to produce 12 mm zone of inhibition assessed per 100 uL in glucose medium after 48 hrs"}, "Saccharomyces cerevisiae [4]": {"test_system": "Saccharomyces cerevisiae", "assay": "DNA damaging activity against RAD52 DNA repair gene/topoisomerase 1 deficient Saccharomyces cerevisiae GAL4:RAD52 mutant assessed as drug level required to produce 12 mm zone of inhibition assessed per 100 uL in galactose medium after 48 hrs"}}, "data": [{"smiles": "CCCC/C=C/C=C/CCCCC[C@@H]1C[C@@H](O)[C@@H](N)CN1", "note": "[PSEUDODISTOMIN B]", "values": [{"measurement": "Activity", "setting": "Saccharomyces cerevisiae [1]", "value": 13, "unit": "µg"}, {"measurement": "Activity", "setting": "Saccharomyces cerevisiae [2]", "value": 1.8, "unit": "µg"}, {"measurement": "Activity", "setting": "Saccharomyces cerevisiae [3]", "value": 1.5, "unit": "µg"}, {"measurement": "Activity", "setting": "Saccharomyces cerevisiae [4]", "value": 1.5, "unit": "µg"}]}, {"smiles": "CCCC/C=C/C=C/CCCCC[C@@H]1C[C@H](O)[C@@H](N)CN1", "note": "[PSEUDODISTOMIN D]", "values": [{"measurement": "Activity", "setting": "Saccharomyces cerevisiae [1]", "value": 11, "unit": "µg"}, {"measurement": "Activity", "setting": "Saccharomyces cerevisiae [2]", "value": 3.8, "unit": "µg"}, {"measurement": "Activity", "setting": "Saccharomyces cerevisiae [3]", "value": 1.9, "unit": "µg"}, {"measurement": "Activity", "setting": "Saccharomyces cerevisiae [4]", "value": 2, "unit": "µg"}]}, {"smiles": "CCCC/C=C/C=C/CCC/C=C/C=C/[C@@H]1C[C@@H](O)[C@@H](N)CN1", "note": "[PSEUDODISTOMIN F]", "values": [{"measurement": "Activity", "setting": "Saccharomyces cerevisiae [1]", "value": 20, "unit": "µg"}, {"measurement": "Activity", "setting": "Saccharomyces cerevisiae [2]", "value": 9, "unit": "µg"}, {"measurement": "Activity", "setting": "Saccharomyces cerevisiae [3]", "value": 3.1, "unit": "µg"}, {"measurement": "Activity", "setting": "Saccharomyces cerevisiae [4]", "value": 3.3, "unit": "µg"}]}, {"smiles": "COC1=C(N)C(=O)c2nc(-c3nc(C(=O)O)c(C)c(-c4ccc(OC)c(OC)c4O)c3N)ccc2C1=O", "note": "[STREPTONIGRIN]", "values": [{"measurement": "Activity", "setting": "Saccharomyces cerevisiae [1]", "value": ">0.1", "unit": "µg"}, {"measurement": "Activity", "setting": "Saccharomyces cerevisiae [2]", "value": 0.012, "unit": "µg"}, {"measurement": "Activity", "setting": "Saccharomyces cerevisiae [3]", "value": 0.009, "unit": "µg"}, {"measurement": "Activity", "setting": "Saccharomyces cerevisiae [4]", "value": ">0.1", "unit": "µg"}]}, {"smiles": "CCCC/C=C/C=C/CCCCC[C@@H]1C[C@H](O)[C@H](N)CN1", "note": "[PSEUDODISTOMIN E]", "values": [{"measurement": "Activity", "setting": "Saccharomyces cerevisiae [1]", "value": 12, "unit": "µg"}, {"measurement": "Activity", "setting": "Saccharomyces cerevisiae [2]", "value": 4.3, "unit": "µg"}, {"measurement": "Activity", "setting": "Saccharomyces cerevisiae [3]", "value": 1.8, "unit": "µg"}, {"measurement": "Activity", "setting": "Saccharomyces cerevisiae [4]", "value": 2.3, "unit": "µg"}]}, {"smiles": "CO[C@H]1C[C@@H]2CC[C@@H](C)[C@@](O)(O2)C(=O)C(=O)N2CCCC[C@H]2C(=O)O[C@H]([C@H](C)C[C@@H]2CC[C@@H](O)[C@H](OC)C2)CC(=O)[C@H](C)/C=C(\\C)[C@@H](O)[C@@H](OC)C(=O)[C@H](C)C[C@H](C)/C=C/C=C/C=C/1C", "note": "[SIROLIMUS]", "values": [{"measurement": "Activity", "setting": "Saccharomyces cerevisiae [1]", "value": 0.00043, "unit": "µg"}, {"measurement": "Activity", "setting": "Saccharomyces cerevisiae [2]", "value": 0.00057, "unit": "µg"}, {"measurement": "Activity", "setting": "Saccharomyces cerevisiae [3]", "value": 0.00044, "unit": "µg"}, {"measurement": "Activity", "setting": "Saccharomyces cerevisiae [4]", "value": 0.00074, "unit": "µg"}]}, {"smiles": "COc1cc(NS(C)(=O)=O)ccc1Nc1c2ccccc2nc2ccccc12", "note": "[AMSACRINE]", "values": [{"measurement": "Activity", "setting": "Saccharomyces cerevisiae [1]", "value": ">20", "unit": "µg"}, {"measurement": "Activity", "setting": "Saccharomyces cerevisiae [2]", "value": 8.2, "unit": "µg"}, {"measurement": "Activity", "setting": "Saccharomyces cerevisiae [3]", "value": 2.7, "unit": "µg"}, {"measurement": "Activity", "setting": "Saccharomyces cerevisiae [4]", "value": ">20", "unit": "µg"}]}, {"smiles": "CCCC/C=C/C=C/CCC/C=C/C=C/[C@@H]1C[C@H](O)[C@H](N)CN1", "note": "[PSEUDODISTOMIN C]", "values": [{"measurement": "Activity", "setting": "Saccharomyces cerevisiae [1]", "value": 38, "unit": "µg"}, {"measurement": "Activity", "setting": "Saccharomyces cerevisiae [2]", "value": 20, "unit": "µg"}, {"measurement": "Activity", "setting": "Saccharomyces cerevisiae [3]", "value": 12, "unit": "µg"}, {"measurement": "Activity", "setting": "Saccharomyces cerevisiae [4]", "value": 13, "unit": "µg"}]}]}
